Results as given in patent US20220002279A1, “NOVEL IMIDAZOLE DERIVATIVE” (priority 2018, published 2022).
Values after ≈ are worked out from the molar mass of the structure shown. Read-outs that look alike come from different tables or passages of the source.

Assays:
[1] = target: T1, Escherichia coli LpxC enzyme (Escherichia coli, UniProt P0A725); experiment: Inhibitory activity on Escherichia coli LpxC enzyme (fluorescamine method); format: biochemical
T1 construct: made in house; host or cells: Escherichia coli
T1 sequence (P0A725 1-305): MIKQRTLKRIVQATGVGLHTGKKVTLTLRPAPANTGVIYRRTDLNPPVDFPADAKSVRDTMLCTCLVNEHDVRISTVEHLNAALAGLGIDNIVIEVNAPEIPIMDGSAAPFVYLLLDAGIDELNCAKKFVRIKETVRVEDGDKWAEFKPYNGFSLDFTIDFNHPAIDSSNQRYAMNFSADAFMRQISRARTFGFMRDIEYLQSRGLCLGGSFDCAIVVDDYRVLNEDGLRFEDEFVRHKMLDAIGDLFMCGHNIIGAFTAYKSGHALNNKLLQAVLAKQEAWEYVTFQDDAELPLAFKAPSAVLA
Method: To assay the activity of Escherichia coli LpxC enzyme, LpxC was reacted with its substrate, UDP-3-O-(R-3-hydroxymyristoyl)-N-acetylglucosamine, and the amount of the reaction product was quantified by the amino groups present in the product
The reaction was terminated by the addition of 1.0 mg/mL-fluorescamine dissolved in a solvent obtained by mixing an equal amount of acetonitrile and dimethylformamide with the reaction mixture, and then, a 0.2 mol/L-sodium phosphate buffer solution (pH 8.0) was added thereto, and the amount of the reaction product was detected at an excitation wavelength/fluorescence wavelength=390 nm/495 nm. An inhibition curve was obtained by performing the aforementioned reaction in the presence of various concentrations of test compounds.

[2] = system: Escherichia coli strain ATCC25922; experiment: Antimicrobial activity, MIC by broth microdilution; format: cell-based; details: ATCC25922, 18 h, read-out: MIC Escherichia coli ATCC25922
Procedure, shortened: (§1)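 MIC read by eye as the lowest drug level lacking visible growth after roughly 18 h at 35° C. Cells from heart infusion agar, set to McFarland 0.5 and diluted, were inoculated at about 5×10^5 CFU/mL into cation-adjusted Mueller-Hinton broth with compound, per adapted CLSI microdilution.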

[3] = system: Klebsiella pneumoniae strain ATCC13883; experiment: Antimicrobial activity, MIC by broth microdilution; format: cell-based; details: read-out: MIC Klebsiella pneumoniae ATCC13883
Procedure, shortened: as §1

[4] = system: Pseudomonas aeruginosa strain ATCC27853; experiment: Antimicrobial activity, MIC by broth microdilution; format: cell-based; details: ATCC27853, 18 h, read-out: MIC Pseudomonas aeruginosa ATCC27853
Procedure, shortened: as §1

[5] = fluorescamine detection, 3.1 nmol/L enzyme, 20 μmol/L substrate, pH 6.5, 120 min, read-out: IC50 (inhibitory activity on Escherichia coli LpxC enzyme, Fluoresamine method)
[6] = cation-adjusted Mueller-Hinton broth, about 5×10^5 CFU/mL, 35° C., about 18 hours
[7] = ATCC13883, cation-adjusted Mueller-Hinton broth, about 5×10^5 CFU/mL, 35° C., about 18 hours

| Structure (SMILES) | IC50 [1, 5] | MIC [2, 6] | MIC [3, 7] | MIC [4, 6] | IC50 [1] | MIC [2] | MIC ([3]; ATCC13883, 18 h) | MIC [4] |
| --- | --- | --- | --- | --- | --- | --- | --- | --- |
| C[C@H](O)c1nccn1Cc1cc(-c2ccc(C#CC3(O)CC3)cc2)on1 [Compound 52, 1-({4-[3-({2-[(1S)-1-hydroxyethyl]-1H-imidazol-1-yl}methyl)-1,2-oxazol-5-yl]phenyl}ethynyl)cyclopropan-1-ol] | 83.5 nM | 2 µg/mL (≈ 5.72 µM) | 4 µg/mL (≈ 11.4 µM) | 128 µg/mL (≈ 366 µM) | – | – | – | – |
| COCC#Cc1ccc(-c2cc(Cn3ccnc3[C@H](C)O)no2)cc1 [Compound 53, (1S)-1-[l-((5-[4-(3-methoxyprop-1-yn-1-yl)phenyl]-1,2-oxazol-3-yl}methyl)-1H-imidazol-2-yl]ethan-1-ol] | 81.7 nM | 4 µg/mL (≈ 11.9 µM) | 2 µg/mL (≈ 5.93 µM) | > 128 µg/mL | – | – | – | – |
| CC(O)CN1C[C@@H]2[C@@H](C#Cc3ccc(-c4cc(Cn5ccnc5[C@H](C)O)no4)cc3)[C@@H]2C1 (stereo partly drawn) [Compound 55, 1-[(1R,5S,6s)-6-({4-[3-({2-[(1S)-1-hydroxyethyl]-1H-imidazol-1-yl}methyl)-1,2-oxazol-5-yl]phenyl}ethynyl)-3-azabicyclo[3.1.0]hexan-3-yl]propan-2-ol] | 97.7 nM | 0.5 µg/mL (≈ 1.16 µM) | 1 µg/mL (≈ 2.31 µM) | 16 µg/mL (≈ 37 µM) | – | – | – | – |
| C[C@H](O)c1nccn1Cc1cc(-c2ccc(C#C[C@@H]3[C@H]4CN(C(CO)CO)C[C@@H]34)cc2)on1 [Compound 56, 2-[(1R,5S,6s)-6-({4-[3-((2-[(1S)-1-hydroxyethyl]-1H-imidazol-1-yl}methyl)-1,2-oxazol-5-yl]phenyl}ethynyl)-3-azabicyclo[3.1.0]hexan-3-yl]propan-1,3-diol] | 83.7 nM | 1 µg/mL (≈ 2.23 µM) | 2 µg/mL (≈ 4.46 µM) | 8 µg/mL (≈ 17.8 µM) | – | – | – | – |
| COCC(O)CN1C[C@@H]2[C@@H](C#Cc3ccc(-c4cc(Cn5ccnc5[C@H](C)O)no4)cc3)[C@@H]2C1 (stereo partly drawn) [Compound 57, 1-[(1R,5S,6s)-6-({4-[3-((2-[(1S)-1-hydroxyethyl]-1H-imidazol-1-yl}methyl)-1,2-oxazol-5-yl]phenyl}ethynyl)-3-azabicyclo[3.1.0]hexan-3-yl]-3-methoxypropan-2-ol] | 71 nM | 0.5 µg/mL (≈ 1.08 µM) | 0.5 µg/mL (≈ 1.08 µM) | 8 µg/mL (≈ 17.3 µM) | – | – | – | – |
| C[C@H](O)c1nccn1Cc1cc(-c2ccc(C#C[C@@H]3[C@H]4CN(C5COC5)C[C@@H]34)cc2)on1 [Compound 59, (1S)-1-(1-{[5-(4-{[(1R,5S,6s)-3-(Oxetan-3-yl)-3-azabicyclo[3.1.0]hexan-6-yl]ethynyl}phenyl)-1,2-oxazol-3-yl]methyl}-1H-imidazol-2-yl)ethan-1-ol] | – | 0.5 µg/mL (≈ 1.16 µM) | 0.5 µg/mL (≈ 1.16 µM) | > 16 µg/mL | 35.5 nM | – | – | – |
| CNCCC(=O)N1C[C@@H]2[C@@H](C#Cc3ccc(-c4cc(Cn5ccnc5[C@H](C)O)no4)cc3)[C@@H]2C1 [Compound 63, 1-[(1R,5S,6s)-6-({4-[3-({2-[(1S)-1-hydroxyethyl]-1H-imidazol-1-yl}methyl)-1,2-oxazol-5-yl]phenyl}ethynyl)-3-azabicyclo[3.1.0]hexan-3-yl]-3-(methylamino)propan-1-one] | 105 nM | 8 µg/mL (≈ 17.4 µM) | 16 µg/mL (≈ 34.8 µM) | 8 µg/mL (≈ 17.4 µM) | – | – | – | – |
| COCCC#Cc1ccc(-c2cc(Cn3ccnc3[C@H](C)O)no2)cc1 [Compound 65, (1S)-1-[l-({5-[4-(4-methoxybut-1-yn-1-yl)phenyl]-1,2-oxazol-3-yl)methyl)-1H-imidazol-2-yl]ethan-1-ol] | 39.1 nM | 0.5 µg/mL (≈ 1.42 µM) | 1 µg/mL (≈ 2.85 µM) | > 128 µg/mL | – | – | – | – |
| C[C@H](O)c1nccn1Cc1cc(-c2ccc(C#CC3CN(C(=O)OC(C)(C)C)C3)cc2)on1 [Compound 68, tert-butyl 3-({4-[3-({2-[(1S)-1-hydroxyethyl]-1H-imidazol-1-yl}methyl)-1,2-oxazol-5-yl]phenyl}ethynyl)azetidine-1-carboxylate] | 13.6 nM | 2 µg/mL (≈ 4.46 µM) | 4 µg/mL (≈ 8.92 µM) | 32 µg/mL (≈ 71.3 µM) | – | – | – | – |
| CC(=O)N1CC(C#Cc2ccc(-c3cc(Cn4ccnc4[C@H](C)O)no3)cc2)C1 [Compound 69, 1-[3-({4-[3-({2-[(1S)-1-hydroxyethyl]-1H-imidazol-1-yl}methyl)-1,2-oxazol-5-yl]phenyl}ethynyl)azetidin-1-yl]ethan-1-one] | 54.2 nM | 4 µg/mL (≈ 10.2 µM) | 8 µg/mL (≈ 20.5 µM) | 64 µg/mL (≈ 164 µM) | – | – | – | – |
| C[C@H](O)c1nccn1Cc1cc(-c2ccc(C#C[C@@H]3[C@H]4CN(C(N)=O)C[C@@H]34)cc2)on1 [Compound 71, (1R,5S,6s)-6-({4-[3-({2-[(1S)-1-Hydroxyethyl]-1H-imidazol-1-yl}methyl)-1,2-oxazol-5-yl]phenyl}ethynyl)-3-azabicyclo[3.1.0]hexane-3-carboxamide] | 29 nM | 1 µg/mL (≈ 2.4 µM) | 2 µg/mL (≈ 4.79 µM) | > 16 µg/mL | – | – | – | – |
| C[C@H](O)c1nccn1Cc1cc(-c2ccc(C#C[C@@H]3[C@H]4CN(S(C)(=O)=O)C[C@@H]34)cc2)on1 [Compound 72, (1S)-1-(1-{[5-(4-{[(1R,5S,6s)-3-(Methanesulfonyl)-3-azabicyclo[3.1.0]hexan-6-yl]ethynyl}phenyl)-1,2-oxazol-3-yl]methyl}-1H-imidazol-2-yl)ethan-1-ol] | 112 nM | 0.5 µg/mL (≈ 1.1 µM) | 1 µg/mL (≈ 2.21 µM) | > 16 µg/mL | – | – | – | – |
| C[C@H](O)c1nccn1Cc1cc(-c2ccc(C#C[C@@H]3[C@H]4CN(C=O)C[C@@H]34)cc2)on1 [Compound 73, (1R,5S,6s)-6-({4-[3-({2-[(1S)-1-Hydroxyethyl]-1H-imidazol-1-yl}methyl)-1,2-oxazol-5-yl]phenyl}ethynyl)-3-azabicyclo[3.1.0]hexane-3-carbaldehyde] | 38.5 nM | 1 µg/mL (≈ 2.48 µM) | 2 µg/mL (≈ 4.97 µM) | 64 µg/mL (≈ 159 µM) | – | – | – | – |
| COCC(=O)N1C[C@@H]2[C@@H](C#Cc3ccc(-c4cc(Cn5ccnc5[C@H](C)O)no4)cc3)[C@@H]2C1 [Compound 76, 1-[(1R,5S,6s)-6-({4-[3-({2-[(1S)-1-Hydroxyethyl]-1H-imidazol-1-yl}methyl)-1,2-oxazol-5-yl]phenyl}ethynyl)-3-azabicyclo[3.1.0]hexan-3-yl]-2-methoxyethan-1-one] | 38 nM | 1 µg/mL (≈ 2.24 µM) | 2 µg/mL (≈ 4.48 µM) | 32 µg/mL (≈ 71.7 µM) | – | – | – | – |
| C[C@H](O)C(=O)N1C[C@@H]2[C@@H](C#Cc3ccc(-c4cc(Cn5ccnc5[C@H](C)O)no4)cc3)[C@@H]2C1 [Compound 77, (2S)-2-hydroxy-1-[(1R,5S,6R)-6-({4-[3-({2-[(1S)-1-hydroxyethyl]-1H-imidazol-1-yl}methyl)-1,2-oxazol-5-yl]phenyl}ethynyl)-3-azabicyclo[3.1.0]hexan-3-yl]propan-1-one] | 67.4 nM | 2 µg/mL (≈ 4.48 µM) | 2 µg/mL (≈ 4.48 µM) | 32 µg/mL (≈ 71.7 µM) | – | – | – | – |
| COC(=O)N1C[C@@H]2[C@@H](C#Cc3ccc(-c4cc(Cn5ccnc5[C@H](C)O)no4)cc3)[C@@H]2C1 [Compound 78, Methyl (1R,5S,6s)-6-({4-[3-({2-[(1S)-1-hydroxyethyl]-1H-imidazol-1-yl}methyl)-1,2-oxazol-5-yl]phenyl}ethynyl)-3-azabicyclo[3.1.0]hexane-3-carboxylate] | – | – | – | – | 13.8 nM | 0.5 µg/mL (≈ 1.16 µM) | 0.5 µg/mL (≈ 1.16 µM) | 32 µg/mL (≈ 74 µM) |
| C[C@H](O)c1nccn1Cc1cc(-c2ccc(C#C[C@@H]3[C@H]4CN(C(=O)C(O)CO)C[C@@H]34)cc2)on1 (stereo partly drawn) [Compound 79, 2,3-dihydroxy-1-[(1R,5S,6s)-6-({4-[3-({2-[(1S)-1-hydroxyethyl]-1H-imidazol-1-yl}methyl)-1,2-oxazol-5-yl]phenyl}ethynyl)-3-azabicyclo[3.1.0]hexan-3-yl]propan-1-one] | 92.7 nM | 2 µg/mL (≈ 4.32 µM) | 4 µg/mL (≈ 8.65 µM) | 32 µg/mL (≈ 69.2 µM) | – | – | – | – |
| C[C@H](O)c1nccn1Cc1cc(-c2ccc(C#C[C@@H]3[C@H]4CN(S(N)(=O)=O)C[C@@H]34)cc2)on1.Cl [Compound 81, (1R,5S,6s)-6-((4-[3-({2-[(1S)-1-Hydroxyethyl]-1H-imidazol-1-yl}methyl)-1,2-oxazol-5-yl]phenyl}ethynyl)-3-azabicyclo[3.1.0]hexane-3-sulfonamide hydrochloride] | 69.6 nM | 0.5 µg/mL | 1 µg/mL | > 4 µg/mL | – | – | – | – |
| C[C@H](O)c1nccn1[C@H](CN)c1cc(-c2ccc(C#CC3CC3)cc2)no1 [Compound 82, (1S)-1-{1-[(1R)-2-Amino-1-{3-[4-(cyclopropylethynyl)phenyl]-1,2-oxazol-5-yl}ethyl]-1H-imidazol-2-yl}ethan-1-ol] | 82 nM | 0.12 µg/mL (≈ 0.331 µM) | 0.25 µg/mL (≈ 0.69 µM) | 16 µg/mL (≈ 44.1 µM) | – | – | – | – |
